“Also recorded” adds a separate entry of the source. Where a name gives a salt, the structure may show the parent alone.

The target of experiment [1] is PnGGT ΔN24 (Pseudomonas nitroreducens, UniProt E0D5C2). Put plainly: Kinetic measurements with purified PnGGT ΔN24. In kind it is biochemical. The method, then:
For the experiments relating to the sulfonate based synthetic transport system, purification of PnGGT ΔN24 and PnGGT ΔN24 D405N containing an N-terminal 6×His-tag was performed according to previous reports (Van Dyke et al., 1992) using Ni-NTA Superflow (Qiagen, Hilden, Germany). For kinetic studies, PnGGT variants were purified with the aid of the 6×His-tag located at the N-terminal end of the large subunit following the same procedure. To exchange the buffer, purified proteins were dialyzed against 50 mM Tris/HCl (pH 7.0).
To determine the kinetic parameters of PnGGT ΔN24 and PnGGT ΔN24 D405N the purified enzymes were preincubated in 50 mM Tris-HCl (pH 9.0). To start the reaction, varying concentrations of the substrates L-glutamic acid γ-(3-carboxy-4-nitroanilide) or sulfobutanoyl-p-nitroanilide were added to the mixtures. The results were evaluated using GraphPad Prism (GraphPad Software, La Jolla, Calif., USA).

Experiment [2] has as its target T1, EcGGT ΔN24 D433N (Escherichia coli, UniProt P18956, D433N).
T1 construct: made in house; host or cells: E. coli (pACT3 plasmid); assayed in whole cell lysate
Kind of experiment: Colorimetric GGT assay in whole cell lysates. In kind it is biochemical, E. coli. Particulars: whole cell lysate, 4 mM substrate, 50 mM Tris-HCl (pH 9.0), 410 nm. From the text:
To test for the desired activity a colorimetric enzyme assay was chosen and the substrate sulfobutanoyl-p-nitroanilide was synthesized for this purpose. Hydrolysis of this colorless substrate by a GGT variant into sulfobutanoic acid and the yellow dye 4-nitroaniline can be quantified photometrically at 410 nm. For that, cytoplasmic GGT variants containing an N-terminal 6×His-tag were first expressed from E. coli (EcGGT ΔN24) and Pseudomonas nitroreducens (PnGGT ΔN24), as well as EcGGT ΔN24 D433N and the corresponding mutant variant PnGGT ΔN24 D405N. Position D405 of PnGGT was identified to fulfill the same function as position D433 of EcGGT by sequence alignment and homology modeling between EcGGT and PnGGT. Then the ability of whole cell lysates containing the respective enzymes was tested to hydrolyze L-glutamic acid γ-(3-carboxy-4-nitroanilide) or sulfobutanoyl-p-nitroanilide.

The test system of experiment [3] is PnGGT* D385Y. Kind of experiment: GGT* activity assay with cell free extracts of PnGGT* mutant variants. In kind it is biochemical, Pseudomonas nitroreducens. The conditions noted are these: 2 mM substrate. The procedure:
(§1) FIG. 29. Expression analysis of selected PnGGT* mutant variants. Strain TK018 was transformed with the empty vector pACT3, the parent plasmid pPnGGT* or selected mutant variants thereof and grown in LB medium to early exponential phase. Synthesis of the PnGGT* variants was induced for 4 hours by adding 0.5 mM IPTG to the culture. (a) GGT* activity assays with cell free extracts and 2 mM of the substrate sulfobutanoyl-p-nitroanilide. […] Bars represent the average of three independent measurements with standard deviations shown as error bars. (b) SDS-PAGE of cell free extracts to confirm loading of similar protein amounts. (c) Western Blot of cell free extracts with an antibody directed against the large subunit of PnGGT* (38.5 kDa). Mutant variants Y167V Q168P and Y167H Q168G were synthesized slightly less efficiently than PnGGT*. All other mutant variants were synthesized with similar efficiency as PnGGT*.

Experiment [4] concerns PnGGT* P505T. The experiment is described as above. In kind it is biochemical, Pseudomonas nitroreducens. The conditions noted are these: 2 mM substrate, sodium salt. The procedure:
as §1

Experiment [5] has as its system TK082. Kind of experiment: In vivo hydrolysis of sulfobutanoyl-p-nitroanilide and sulfobutanoyl-AMC. In kind it is cell-based, E. coli. The conditions noted are these: 0.5 mM compound, different plasmid combinations. The method, then: Strain TK082 was transformed with plasmids as indicated in the text and grown at 37° C. in MS minimal medium supplemented with 0.5% glucose, 1 mM MgSO4 and 0.4 mM L-leucine to an OD600 of 0.5. At that stage, the synthesis of PnGGT* and/or SsuABC was induced for 2 hours by adding 0.5 mM IPTG and 100 ng mL^−1 aTc. Following this synthesis period, cells were washed in the same medium to remove proteins that had been released into the medium by cell lysis. After an additional centrifugation step, cells were resuspended in MS minimal medium supplemented with 0.5% glucose, 1 mM MgSO4, 0.4 mM L-leucine, 0.5 mM IPTG, 100 ng mL^−1 aTc and 0.5 mM sulfobutanoyl-p-nitroanilide or sulfobutanoyl-AMC (see below for description of synthesis) and incubated in a Tecan Infinite 200 Pro plate reader at 37° C. To monitor cell density and the release of 4-nitroaniline, absorbance was constantly measured at 600 nm and 410 nm. The release of AMC was monitored by measuring the fluorescence at λex=350 nm and λem=450 nm. To determine the influence of competition for the sulfonate transporter SsuABC, different concentrations of pentanesulfonate (Sigma Aldrich) were added to the medium.

`O=C(CCCS(=O)(=O)O)Nc1ccc([N+](=O)[O-])cc1` [sodium salt]: the “hydrolysis of substrate by purified enzyme” value in experiment [1] was “no detectable activity”. For the same molecule, the hydrolysis of substrate entry in experiment [2] is given as “acquired the ability to hydrolyze”. Besides, in experiment [3], the activity towards substrate result is “low activity”. Also, the “activity towards substrate compared to PnGGT*” value in experiment [4] is “elevated activity; also recorded: slightly elevated in vitro activity”. Also, the “in vivo release of 4-nitroaniline from the compound” value in experiment [5] is “only released from the SBA moiety when SsuABC and PnGGT* were simultaneously synthesized”.

Source of the values: US11661398B2, “Cellular transport system for transferring a sulfonic acid construct carrying a cargo into the cytoplasm of a cell” (Scientist of Fortune, S.A., priority 2017, dated 2023).
